Experimental findings from PubChem BioAssay AID489002 (NMMLSC, 2010) are described below.

Activity calls are given as the source filed them.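 Rule for the calls: active = combined score above 52 from an acceptable curve fit, favoring EC50 below 10 µM and curve height over 20%; inactive = the rest.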

The first assay deals with ATP-dependent translocase ABCB1 (Homo sapiens) (UniProt P08183). Put plainly: ABCB1 efflux inhibition concentration-response, dose response, Jurkat-DNR cells, JC-1, flow cytometry, follow-up (AID 489002). Conditions: JC-1 efflux. A general note: Flow cytometry measures light scatter and fluorescence of single cells or particles in a stream.
Sequence of ATP-dependent translocase ABCB1 (Homo sapiens) (P08183 whole entry, looked up): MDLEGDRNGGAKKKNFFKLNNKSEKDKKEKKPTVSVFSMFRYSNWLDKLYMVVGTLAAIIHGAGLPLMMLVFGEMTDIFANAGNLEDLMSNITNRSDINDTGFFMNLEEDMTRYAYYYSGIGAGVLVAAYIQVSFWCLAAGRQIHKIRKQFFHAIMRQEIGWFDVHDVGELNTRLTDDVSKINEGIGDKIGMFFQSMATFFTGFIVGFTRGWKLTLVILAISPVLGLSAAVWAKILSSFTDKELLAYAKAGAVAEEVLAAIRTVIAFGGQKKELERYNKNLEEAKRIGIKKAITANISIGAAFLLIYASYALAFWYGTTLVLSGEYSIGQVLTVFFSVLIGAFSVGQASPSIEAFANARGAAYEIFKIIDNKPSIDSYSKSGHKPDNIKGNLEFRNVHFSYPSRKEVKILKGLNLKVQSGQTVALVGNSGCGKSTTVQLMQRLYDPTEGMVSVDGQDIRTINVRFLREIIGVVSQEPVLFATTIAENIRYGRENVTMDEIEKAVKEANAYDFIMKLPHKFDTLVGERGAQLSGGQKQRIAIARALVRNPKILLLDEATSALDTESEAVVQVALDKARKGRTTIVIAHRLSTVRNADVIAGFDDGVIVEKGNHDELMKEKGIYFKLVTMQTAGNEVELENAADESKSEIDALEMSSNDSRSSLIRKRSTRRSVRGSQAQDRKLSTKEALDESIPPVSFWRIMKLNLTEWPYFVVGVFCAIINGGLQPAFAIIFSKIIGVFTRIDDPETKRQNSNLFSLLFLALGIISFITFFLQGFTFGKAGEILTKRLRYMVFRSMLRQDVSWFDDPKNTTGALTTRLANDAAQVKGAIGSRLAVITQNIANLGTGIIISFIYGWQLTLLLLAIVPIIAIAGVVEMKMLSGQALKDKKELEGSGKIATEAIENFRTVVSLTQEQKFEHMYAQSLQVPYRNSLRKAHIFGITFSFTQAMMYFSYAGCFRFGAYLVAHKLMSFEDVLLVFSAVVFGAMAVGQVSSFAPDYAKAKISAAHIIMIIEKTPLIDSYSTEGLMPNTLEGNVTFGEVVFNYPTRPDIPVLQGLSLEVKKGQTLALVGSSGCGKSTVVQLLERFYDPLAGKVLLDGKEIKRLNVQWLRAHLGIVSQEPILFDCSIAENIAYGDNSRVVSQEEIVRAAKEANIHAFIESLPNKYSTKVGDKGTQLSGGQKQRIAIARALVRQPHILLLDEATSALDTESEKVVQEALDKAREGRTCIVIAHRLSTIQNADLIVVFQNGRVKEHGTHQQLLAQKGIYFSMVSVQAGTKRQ
In the case of `O=C1CN(c2cc(-c3ccco3)nc3cc(-c4ccccc4)nn23)CCN1c1ccccc1`, the EC50 is 6.61 µM.
Turning to `c1ccc(-c2cc3nc(-c4ccco4)cc(N4CCNCC4)n3n2)cc1`, the EC50 result was “inactive”.
Consider `O=C(c1ccoc1)N1CCCN(c2cc(-c3ccco3)nc3cc(-c4ccccc4)nn23)C1`, for which the EC50 result was “inactive”.
Regarding `COc1cccc(-c2cc3nc(C)c(C)c(N4CCN(C(=O)c5ccco5)CC4)n3n2)c1`, the EC50 was 11.8 µM.
For the compound `O=C(c1ccco1)N1CCN(c2cc(-c3ccco3)nc3cc(-c4ccccc4)nn23)CC1`, the EC50 was 8.53 µM.
Consider `O=C(c1ccoc1)N1CCN(c2cc(-c3ccco3)nc3cc(-c4ccc(Cl)cc4)nn23)CC1`, for which the EC50 entry was “inactive”.
Same read-out and setting: the figure for `Cc1cc(C(=O)N2CCN(c3cc(-c4ccco4)nc4cc(-c5ccccc5)nn34)CC2)c(C)o1` is 8.68 µM.
On to `O=C(c1ccoc1)N1CCN(c2cc(-c3ccco3)nc3cc(-c4ccccc4)nn23)CC1`, for which the EC50 was 4.6 µM.
As for `COc1cccc(-c2cc3nc(C)cc(N4CCN(C(=O)c5ccoc5)CC4)n3n2)c1`, the EC50 result was “inactive”.
With `CN(CCCN(C)c1cc(-c2ccco2)nc2cc(-c3ccccc3)nn12)C(=O)c1ccoc1`, the EC50 result was “inactive”.
As for `Cc1cccc(-c2cc3nc(-c4ccco4)cc(N4CCN(C(=O)c5ccoc5)CC4)n3n2)c1`, the EC50 result was “inactive”.
`O=C(c1ccoc1)N1CCN(c2cc(-c3ccco3)nc3cc(-c4cccc(Cl)c4)nn23)CC1`: the EC50 result is “inactive”.
The same measure, in the same setting: the figure for `COc1ccc(-c2cc3nc(-c4ccccc4)cc(N4CCN(C(=O)c5ccoc5)CC4)n3n2)cc1` is 2.05 µM; for `O=C(c1ccoc1)N1CCN(c2cc(-c3ccco3)nc3cc(-c4ccco4)nn23)CC1` it is 2.03 µM; for `Cc1c(-c2ccco2)nc2cc(-c3ccccc3)nn2c1N1CCN(C(=O)c2ccoc2)CC1` it is 6.48 µM.
For the compound `O=C(c1ccoc1)N1CCN(c2cc(-c3ccccc3)nc3cc(-c4ccncc4)nn23)CC1`, the EC50 was 9.92 µM.
`Cc1occc1C(=O)N1CCN(c2cc(-c3ccco3)nc3cc(-c4ccccc4)nn23)CC1`: the EC50 was 11.8 µM.
For `CC1CN(C(=O)OC(C)(C)C)CCN1c1cc(-c2ccco2)nc2cc(-c3ccccc3)nn12` (stereo not given), the EC50 result is “inactive”.
`COc1ccc(-c2cc3nc(-c4ccco4)cc(N4CCN(C(=O)c5ccoc5)CC4)n3n2)cc1`: the EC50 is 4.86 µM.
On to `O=C(c1coc2ccccc12)N1CCN(c2cc(-c3ccco3)nc3cc(-c4ccccc4)nn23)CC1`, for which the EC50 result is “inactive”.
With `COc1cccc(-c2cc3nc(C)c(C(C)C)c(N4CCN(C(=O)c5ccoc5)CC4)n3n2)c1`, the EC50 is 10.2 µM.
Turning to `COc1cccc(-c2cc3nc(-c4ccccc4)c(C)c(N4CCN(C(=O)c5ccoc5)CC4)n3n2)c1`, the EC50 was 4.77 µM.
Same read-out and setting: the entry for `CC(C)(C)OC(=O)N1CCN(c2cc(-c3ccco3)nc3cc(-c4ccccc4)nn23)CC1` is “inactive”.
For `O=C(C1CCCO1)N1CCN(c2c3c(nc4cc(-c5cccc(F)c5)nn24)CCCC3)CC1` (stereo not given), the EC50 result was “inactive”.
Turning to `COc1cccc(-c2cc(N3CCN(C(=O)c4ccoc4)CC3)n3nc(-c4cccc(OC)c4)cc3n2)c1`, the EC50 is 3.54 µM.
On the same count and under the same terms, as for `O=C(c1ccoc1)N1CCN(c2cc(-c3ccco3)nc3cc(-c4cccs4)nn23)CC1`, the figure is 9.8 µM; as for `Cc1ccc(-c2cc3nc(-c4ccco4)cc(N4CCN(C(=O)c5ccoc5)CC4)n3n2)cc1`, “inactive”.
For the compound `COc1ccc(-c2cc3nc(C)c(C)c(N4CCN(C(=O)c5ccco5)CC4)n3n2)cc1`, the 50% effective concentration (EC50) was 4.78 µM.
`COc1ccccc1-c1cc2nc(-c3ccco3)cc(N3CCN(C(=O)c4ccoc4)CC3)n2n1`: the concentration for a half-maximal effect (EC50) is 10.3 µM.
On the same count and under the same terms, as for `Cc1ccc(-c2cc(N3CCN(C(=O)c4ccoc4)CC3)n3nc(-c4ccccc4)cc3n2)o1`, the entry is “inactive”; as for `COc1ccccc1-c1cc(N2CCN(C(=O)c3ccoc3)CC2)n2nc(-c3ccccc3)cc2n1`, 15.3 µM; as for `COc1cc(OC)cc(-c2cc3nc(C)c(C)c(N4CCN(C(=O)c5ccoc5)CC4)n3n2)c1`, 1.84 µM.
Still for that read-out and setting: the entry for `Cc1cc(N2CCN(C(=O)C3CCCO3)CC2)n2nc(-c3cccc(F)c3)cc2n1` (stereo not given) is “inactive”; for `O=C(c1ccsc1)N1CCN(c2cc(-c3ccco3)nc3cc(-c4ccccc4)nn23)CC1` it is 5.69 µM.
The same measure, in the same setting: as for `CC(=O)N1CCN(c2cc(-c3ccco3)nc3cc(-c4cccc(Cl)c4)nn23)CC1`, the figure is 3.97 µM; as for `COc1ccc(-c2[nH]nc3nc(N4CCN(C(=O)c5ccoc5)CC4)cc(C(F)(F)F)c23)cc1`, “inactive”.
As for `COc1cccc(-c2cc3nc(-c4ccccc4)cc(N4CCN(C(=O)c5ccoc5)CC4)n3n2)c1`, the EC50 is 7.07 µM.
Regarding `CC(=O)N1CCN(c2cc(-c3ccco3)nc3cc(-c4ccccc4)nn23)CC1`, the EC50 is 5.44 µM.
The same measure, in the same setting: as for `COC(=O)c1cccc(-c2cc(N3CCN(C(=O)c4ccoc4)CC3)n3nc(-c4cccc(OC)c4)cc3n2)c1`, the figure is 2.97 µM.
Still for that read-out and setting: as for `Cc1nc2cc(-c3ccccc3)nn2c(N2CCN(C(=O)c3ccoc3)CC2)c1C`, the figure is 2.19 µM; as for `CNCCCN(C)c1cc(-c2ccco2)nc2cc(-c3ccccc3)nn12`, “inactive”; as for `COc1ccc(-c2cc(N3CCN(C(=O)c4ccoc4)CC3)n3nc(-c4ccccc4)cc3n2)cc1`, “inactive”.
For the compound `O=C(c1ccco1)N1CCN(c2c3c(nc4cc(-c5ccc(F)cc5)nn24)CCC3)CC1`, the EC50 is 1.85 µM.
`Cc1nc2cc(-c3ccc4c(c3)OCO4)nn2c(N2CCN(C(=O)c3ccoc3)CC2)c1C`: the EC50 was 1.93 µM.
Regarding `c1ccc(CN2CCN(c3cc(-c4ccco4)nc4cc(-c5ccccc5)nn34)CC2)cc1`, the EC50 is 3.84 µM.
As to `CC(C)(C)c1cc(N2CCN(C(=O)c3ccoc3)CC2)n2nc(-c3ccccc3)cc2n1`, the EC50 entry is “inactive”.
For `O=C(c1ccoc1)N1CCN(c2cc(-c3ccccc3F)nc3cc(-c4ccccc4)nn23)CC1`, the EC50 was 10.5 µM.
With `Cc1nc2cc(-c3ccc(Br)cc3)nn2c(N2CCN(C(=O)c3ccoc3)CC2)c1C`, the EC50 entry was “inactive”.
Regarding `Cc1nc2cc(-c3ccncc3)nn2c(N2CCN(C(=O)c3ccoc3)CC2)c1C`, the EC50 result is “inactive”.
For `COc1cccc(-c2cc3nc(C)c(C)c(N4CCN(C(=O)c5ccoc5)CC4)n3n2)c1`, the 50% effective concentration (EC50) is 12.8 µM.
For the compound `O=C(c1ccoc1)N1CCN(c2cc(-c3cccs3)nc3cc(-c4ccccc4)nn23)CC1`, the EC50 is 8.33 µM.
As for `O=C(c1ccoc1)N1CCN(c2cc(-c3ccco3)nc3cc(-c4cccc(-c5ccco5)c4)nn23)CC1`, the concentration giving a half-maximal response (EC50) is 5.15 µM.
On to `O=C(OCc1ccccc1)N1CCN(c2cc(-c3ccco3)nc3cc(-c4ccccc4)nn23)CC1`, for which the EC50 is 3.03 µM.
For `Cc1nc2cc(-c3cccc(Cl)c3)nn2c(N2CCN(C(=O)c3ccoc3)CC2)c1C`, the EC50 entry was “inactive”.
Still for that read-out and setting: as for `O=C(c1ccoc1)N1CCN(c2cc(-c3cccc(F)c3)nc3cc(-c4ccccc4)nn23)CC1`, the entry is “inactive”; as for `COc1cccc(-c2cc3nc(-c4cccc(C#N)c4)cc(N4CCN(C(=O)c5ccoc5)CC4)n3n2)c1`, 2.34 µM.
For the compound `O=C(c1ccoc1)N1CCN(c2cc(-c3cccc(F)c3)nc3cc(-c4cccc(Cl)c4)nn23)CC1`, the half-maximal effective concentration (EC50) was 6.45 µM.
With `COc1ccc(-c2cc3nc(C)c(C)c(N4CCN(C(=O)c5ccoc5)CC4)n3n2)cc1`, the EC50 was 4.08 µM.
Turning to `O=C(c1ccoc1)N1CCN(c2cc(-c3ccoc3)nc3cc(-c4ccccc4)nn23)CC1`, the EC50 entry was “inactive”.

Still in this assay, the particulars now being: JC-1 efflux, at 50 µM (top of the series).
For `Cc1nc2cc(-c3cccc(F)c3)nn2c(N2CCN(C(=O)c3ccco3)CC2)c1C`, the inhibition result was “inactive”.
`O=C(c1ccco1)N1CCN(c2cc(-c3ccccc3)nc3ncnn23)CC1`: the inhibition entry is “inactive”.
With `COc1cccc(-c2cc3nc(C)c(C)c(N4CCN(Cc5ccco5)CC4)n3n2)c1`, the inhibition entry is “inactive”.
For `COc1ccccc1-c1c(C)nn2c(N3CCN(C(=O)c4ccco4)CC3)cc(C)nc12`, the inhibition entry was “inactive”.
Turning to `Cc1nn2c(N3CCN(C(=O)c4ccco4)CC3)cc(C(C)(C)C)nc2c1-c1ccc(Cl)cc1`, the inhibition entry is “inactive”.
In the case of `CC(=O)N1CCN(c2c(C)c(C)nc3cc(-c4ccc(F)cc4)nn23)CC1`, the inhibition result is “inactive”.

One may read the EC50 as the concentration giving half of the maximal effect.
